This note sets out measurements from PMC10693084, “Novel 8-Methoxycoumarin-3-Carboxamides with potent anticancer activity against liver cancer via targeting caspase-3/7 and β-tubulin polymerization” (BMC Chemistry, 2023).

The subject of data set [1] is HepG2 cells. Description: Annexin V-FITC/PI apoptosis screening. The class given is cell-based, human. Particulars: HepG2, IC50 concentration, 24 h. An excerpt:
Next, we have conducted Annexin V-FITC/PI screening to further investigate the impact of compound 5 on the growth of HepG2 cells and comprehensively analyze programmed cell death. The Annexin V-FITC/PI assay is a widely used method to differentiate between apoptotic and necrotic cells based on their membrane integrity and phospholipid exposure. […] The results from the Annexin V-FITC/PI screening provide crucial insights into the mode of action of compound 5 in inducing cell death in HepG2 cells. Annexin V-FITC is a marker that binds specifically to phosphatidylserine (PS), a phospholipid that becomes externalized on the cell membrane during early apoptosis. Propidium iodide (PI) is a dye that can penetrate cells with compromised membranes, typically found in late-stage apoptosis or necrosis. […] This is important since apoptosis is a highly regulated process, and its induction is a favorable outcome for anti-cancer therapies, as opposed to necrosis, which is often associated with cell death caused by injury or external damage. Overall, these findings from the Annexin V-FITC/PI screening support the ability of compound 5 to induce apoptosis in HepG2 cells and its lack of significant induction of necrosis reinforce its potential as a promising candidate for anti-cancer therapy.
Apoptosis detection in HepG-2 cells was conducted utilizing the BioVision® annexin‐V‐FITC apoptosis detection kit in accordance with the instructions provided by the manufacturer. The quantification of apoptosis was performed using a FACS Calibur flow cytometer, with a wavelength of 488 nm. In a concise manner, a total of 1–5 × 10^5 cells were obtained through the process of centrifugation. The cells were subsequently exposed to compound 5 at concentrations corresponding to its IC50 value for a duration of 24 h. Following this treatment, the cells were resuspended in a binding buffer solution with a volume of 500 μl. The addition of Annexin-V-FITC and PI was performed. Subsequently, the specimens were subjected to incubation at ambient temperature for a duration of 5 min, while being shielded from light. The analysis of Annexin-V-FITC binding was conducted utilizing a dedicated signal detector.

Data set [2] concerns human liver carcinoma HepG2 cells. Description: MTT cytotoxicity assay against HepG2 cells. The class given is cell-based. Particulars: HepG2 cells. On the procedure:
To assess the antitumor properties of these compounds, we utilized the 3-(4,5-dimethylthiazol-2-yl)-2,5-diphenyl tetrazolium bromide (MTT) colorimetric assay, a widely used method to evaluate cell viability and cytotoxicity.
(§1) Following the incubation period, the cells were subjected to various concentrations of the prepared molecules and subsequently incubated for a duration of 24 h. […] Subsequently, a volume of 100 μL of dimethyl sulfoxide (DMSO) was introduced into each well in order to facilitate the dissolution of the purple formazan that had been generated. The quantification of the color intensity of the formazan product, which serves as an indicator of the cellular growth condition, is performed by employing an ELISA plate reader set at a wavelength of 570 nm. The experimental conditions were implemented with a minimum of three replicates, and the experiments were conducted on at least three separate occasions.

The next data set has as its system WI 38 normal cells. Description: MTT cytotoxicity assay against WI 38 normal cells. Particulars: Homo sapiens, WI 38 normal lung cells, 24 h treatment. The class given is cell-based. On the procedure: as §1
The test system of data set [3] is HepG2 cells. The data set can be described thus: Cell cycle analysis by flow cytometry (PI). Particulars: HepG2, 0.9 µM (IC50), 24 h. The class given is cell-based, human. On the procedure:
Next, our investigations focused on evaluating the effects of compound 5 on the cell cycle of HepG2 cells utilizing flow cytometric analysis. The cells were treated with compound 5 at a concentration corresponding to the IC50 value and the cell cycle distribution was then analyzed, and the results were compared with untreated control cells. […] Conversely, there was a notable increase in the cellular population at the G2/M and pre-G1 phases. […] These findings indicate that compound 5 induces a notable arrest in cell growth during the […] phase. The flow cytometric analysis of HepG2 cells treated with compound 5 provided valuable insights into its effects on the cell cycle distribution. […] The G0/G1 phase is the resting phase, where cells prepare for DNA replication and cell division, while the S phase is where DNA replication occurs. […] This is a critical control point where the cell ensures that DNA replication is complete and free from errors before entering mitosis. […] The most remarkable finding was the dramatic rise in the pre-G1 population upon treatment with compound 5. The pre-G1 phase is associated with cells undergoing apoptosis, which is a programmed cell death process. […] This implies that the treatment with compound 5 leads to the activation of apoptotic pathways, causing the cells to undergo DNA fragmentation and degradation, ultimately leading to cell death. […] G2/M arrest prevents cells from progressing through the cell cycle, while apoptosis eliminates the damaged or aberrant cells. These combined effects may contribute to the compound's potent anti-cancer activity against HepG2 cells.
The quantification of DNA content in the cell cycle analysis was performed using a FACS Calibur flow cytometer at a wavelength of 488 nm, following the guidelines provided by the manufacturer. […] Following the completion of the treatment, the cells underwent two rounds of washing and were subsequently resuspended in phosphate-buffered saline (PBS). Following the washing step, a volume of 0.7 ml of absolute ethanol was subsequently introduced, and the mixture was incubated at a temperature of -20 °C for a duration of 20 min. Following the washing step, a volume of 500 μl of RNase was introduced, and subsequently, the mixture was incubated for a duration of 30 min. Next, the addition of PI was carried out, followed by a 30-min incubation period, during which exposure to light was carefully avoided.

Take `COc1ccc(Br)c2cc(C(N)=O)c(=O)oc12` [Compound 5, 5-Bromo-8-methoxycoumarin-3-carboxamide]: in the data set with HepG2 cells [1], the “fold increase of early apoptosis vs control” value came to 42 fold, the “fold increase of late-stage apoptosis vs control” value worked out at 100 fold, the “fold increase of necrosis vs untreated” value is reported as “threefold” and the “fold increase of programmed cell death vs untreated” value was 22 fold. Moreover, the “percentage of cells in late-stage apoptosis” value in the data set with HepG2 cells [1] (control 0.22%) is on record as 22.16%. Moreover, in the data set on HepG2 cells [1] (control 0.46%), the “percentage of cells undergoing early apoptosis” value was found to be 19.51%. The “percentage of cells undergoing necrosis” value with HepG2 cells [1] (untreated 1.4%) worked out at 4.21%. Moreover, the “total percentage of programmed cell death” value with HepG2 cells [1] (untreated 2.08%) came out at 45.88%. Besides, in data set [2], the “Structure–activity summary of cytotoxic activity (Fig. 4B)” value is listed as “improved activity”. In data set [2] (Homo sapiens, HepG2, 24 h, MTT, 24 h treatment), this compound registered an IC50 of 0.9 ± 0.05 µM. Moreover, the IC50 with WI 38 normal cells is 24.1 ± 1.46 µM. Also, in the data set on HepG2 cells [3] (untreated 2.08%), the “percentage of cells in pre-G1 phase” value was found to be 45.88%. In the data set with HepG2 cells [3] (untreated 15.38%), the “percentage of cells in G2/M phase” value stood at 31.51%. The “percentage of cells in S phase” value in the data set with HepG2 cells [3] (untreated 34.91%) is 27.4%. Also, the “percentage of cells in G0/G1 phase” value with HepG2 cells [3] (untreated 49.71%) was determined as 41.09%.
